According to patent US11261232B2, “TNFRSF14 / HVEM proteins and methods of use thereof” (MEMORIAL SLOAN KETTERING CANCER CENTER, priority 2015, dated 2022):

Key:
primary human FL B cells = experiment: BCR signaling (pSyk, pERK) in anti-IgG-stimulated primary FL B cells; assay type: cell-based; settings: solHVEM 10 μg/ml
Experimental: FIG. 4A-E. HVEM blocks BCR signaling in a cell autonomous and BTLA dependent manner. FIG. 4A and FIG. 4B, Quantification of FACS analysis of phosphorylated BTK (pBTK) expression in BCL1 cells after stimulation with anti-IgM in the presence of solHVEM (10 μg/m1) or Ibrutinib (10 nM) without (FIG. 4A) or with (FIG. 4B) the knockdown of BTLA (shBTLA); FIG. 4C, FACS analysis of BTLA expression on purified primary human FL B cells distinguishes samples with high (BTLA^hi) and low (BTLAlo) surface BTLA expression); FIG. 4D, FACS analysis for the indicated signaling molecules in human primary FL B cells that were BTLA^hi or BTLAlo and stimulated with anti-human IgG (3 min; 10 μg/ml and H2O2 1 mM) in the presence or absence of the soluble HVEM ectodomain (solHVEM; 10 μg/ml) (right); FIG. 4E, Percentage of pSyk inhibition was calculated by comparing the ratio of MFI of pSyk+/−solHVEM and was correlated to BTLA ratio of MFI (r=0.697, p=0.03, Purified FL B cells, n=10, grade 1 and grade 2).
FIG. 11. Effect of HVEM on murine and human FL B cells. […]
Loss of HVEM and BTLA leads to BCR activation in murine lymphomas (FIGS. 2G and 3F). […] Briefly, the BCR signaling pathway in BCL1 mouse lymphoma cells was stimulated with IgM in the presence or absence of solHVEM (10 μg/ml) or the pharmacological BTK inhibitor ibrutinib (10 nM) and BTK phosphorylation was measured as an indicator of BCR pathway activation by flow cytometry. […] BTLA expression was analyzed across ten samples of purified human FL B cells by FACS, and the samples were divided into BTLA″ and BTLA^10 groups (FIG. 4C). […]
Purified IgGpos FL B cells were stimulated using FITC-conjugated goat anti-human IgG (Invitrogen, […]) in the presence of H2O2 (1 mM) with or without solHVEM (10 μg/mL). […] Phosphoprotein activation was quantified using Alexa 647-conjugated anti-pSyk (clone 17A/p-ZAP70), anti-pBLNK (clone j117-1278), or anti-pERK1/2 (clone 20A, BD Biosciences) and analyzed on B cells expressing clonal heavy and light chain gated using the anti-IgG FITC Ab and a PE-conjugated anti-kappa Ab (Southern Biotech).

[1] = system: cell lines that expressed high levels of BTLA; experiment: Immunoblot of ERK phosphorylation in treated cell lines; assay type: cell-based; settings: 5 ug/ml; cell lines with high BTLA
Experimental: FIG. 19. In vitro effect of sTNFRSF14. Immunoblots of cell lines that were treated with 5 ug/ml of sTNFRSF14. Blots were probed as indicated.
Immunoblots were performed using whole cell lysates or supernatants as previously described (Wendel et al., 2004). In brief, 30 μg protein/sample was resolved on SDS-PAGE gels and transferred to Immobilon-P membranes (Millipore). Antibodies were against, pSyk (Cell Signaling Technologies #2712), Syk (Cell Signaling Technologies #2710), pBTK (Cell Signaling Technologies #5082), BTK (Cell Signaling Technologies #3533) pERK (Cell Signaling Technologies #9102), ERK (Cell Signaling Technologies #4370) and Tubulin (Sigma-Aldrich). Enhanced chemiluminescence was used for detection (ECL; GE Healthcare).

Molecule | ERK inhibition in BTLAhi cells (primary human FL B cells; BTLAhi primary FL B cells) | SYK inhibition in BTLAhi cells (primary human FL B cells; BTLAhi primary FL B cells) | SYK and ERK inhibition in BTLAlo cells (primary human FL B cells; BTLAlo primary FL B cells) | ERK phosphorylation levels [1]
solHVEM: Leu39-Val202 soluble HVEM ectodomain polypeptide of SEQ ID NO. 8 | inhibition | inhibition | little effect | 
sTNFRSF14: Pro37-Val202 soluble HVEM ectodomain polypeptide of SEQ ID NO. 6 (protein, listed as Homo sapiens) PALPSCKEDEYPVGSECCPKCSPGYRVKEACGELTGTVCEPCPPGTYIAHLNGLSKCLQCQMCDPAMGLRASRNCSRTENAVCGCSPGHFCIVQDGDHCAACRAYATSSPGQRVQKGGTESQDTLCQNCPPGTFSPNGTLEECQHQTKCSWLVTKAGAGTSSSHWV |  |  |  | clearly reduced
